Tested on: THP-1 Lucia ISG cells
Assay: ISG-LUC activation assay (ISRE-luciferase assay)
Type: cell-based
Settings: Homo sapiens, THP1-Lucia ISG, activity score based upon potency and efficacy data, 24 hours
Text: We have established a robust platform for identifying non-nucleotide small molecule STING agonists. This has been established using a primary assay involving a human THP-1 cell line carrying an IRF-inducible reporter with 5 copies of the IFN signaling response element. Counter screens, involving alternative reporter constructs, rodent cell-based assays, as well as cGAS and STING knock-out cell lines, are used to eliminate luciferase artifacts and ensure human-rodent cross species reactivity, as well as pathway selectivity. Biochemical assays, involving cGAS enzymatic activity and STING protein binding assays, are used to identify the specific target of identified hits.
Tissue culture. Wild-type (cat. no. thpl-isg) and STING KO (cat. no. thpd-kostg) THP-1-Lucia ISG cells were purchased from Invivogen and maintained in growth media consisting of RPMI 1640, 2 mM L-glutamine, 25 mM HEPES, 10% heat-inactivated fetal bovine serum (FBS), 1,000 units/ml penicillin, 1,000 μg/ml streptomycin, 0.25 μg/ml Amphotericin B, and 100 μg/ml zeocin unless otherwise stated.
ISRE-luciferase assay. THP-1 Lucia ISG cells were resuspended in low-serum growth media (2% FBS) at a density of 5×10^5 cells/ml and treated with test article or vehicle (DMSO). 50 μL of cells were seeded into each well of a 384-well white greiner plates and incubated for 24 hours. To evaluate expression of the luciferase reporter, 30 μl of Quanti-luc (Invivogen) detection reagent was added to each well and luminescence was read using an Envision plate reader (Perkin Elmer) set with an integration time of 0.1 seconds.

| SMILES | EC50 [nM] |
| --- | --- |
| O=C(Nc1cc(Cl)c(Cl)nc1C(=O)O)c1ccc(-c2cc[nH]n2)nn1 [Compound 33] | > 1000 |
| COC(=O)c1nc(Cl)c(Cl)cc1NC(=O)c1ccc(-c2cc[nH]n2)nn1 [Compound 34] | < 900 |
| C#Cc1cc(NC(=O)c2cn(-c3cn[nH]c3)nn2)c(C(=O)OC)cc1F [Compound 35] | < 900 |
| C#Cc1cc(NC(=O)c2cn(-c3cn[nH]c3)nn2)c(C(=O)O)cc1F [Compound 36] | > 1000 |
| COC(=O)c1cc(Cl)c(Cl)cc1NC(=O)c1nc(-c2cn[nH]c2)no1 [Compound 37] | < 3000 |
| C#Cc1cc(NC(=O)c2ccc(-c3cn[nH]c3)nn2)c(C(=O)O)nc1Cl [Compound 38] | < 900 |
| COC(=O)c1sc(C)cc1NC(=O)c1ccc(-n2ccnc2)nn1 [Compound 39] | > 1000 |
| COC(=O)c1cc(F)c(F)cc1NC(=O)c1ccc(-c2ccnc(N)c2)nn1 [Compound 40] | < 900 |
| COC(=O)c1cc(F)c(F)cc1NC(=O)c1cc(N)c(-n2ccnc2)nn1 [Compound 41] | < 900 |
| COC(=O)c1cc(F)c(F)cc1NC(=O)c1cc(C)c(-n2ccnc2)nn1 [Compound 42] | > 1000 |
| COC(=O)c1cc(F)c(F)cc1NC(=O)c1nnc(-n2ccnc2)cc1C [Compound 43] | > 1000 |
| C=Cc1cc(NC(=O)c2ccc(-c3cn[nH]c3)nn2)c(C(=O)O)cc1F [Compound 44] | < 900 |
| COC(=O)c1cc(Cl)c(F)cc1NC(=O)c1ccncn1 [Compound 45] | > 1000 |
| C#Cc1cc(NC(=O)c2ccc(-c3cn[nH]c3)nn2)c(C(=O)O)cc1F [Compound 46] | > 1000 |
| COC(=O)NCc1cc(C(=O)Nc2cc(Cl)c(Cl)cc2C(=O)OC)nnc1-n1ccnc1 [Compound 47] | > 1000 |
| COC(=O)c1cc(Cl)c(Cl)cc1NC(=O)c1cc(CNC(N)=O)c(-n2ccnc2)nn1 [Compound 48] | > 1000 |
| O=C(Nc1cc(Cl)c(Cl)cc1C(=O)O)c1ccc(-c2cn[nH]c2)nn1 [Compound 49] | > 1000 |
| COC(=O)c1cc(Cl)c(Cl)cc1NC(=O)c1ccc(-c2c[nH]nn2)nn1 [Compound 50] | < 900 |
| O=C(Nc1cc(Cl)c(Cl)cc1C(=O)O)c1ccc(-c2c[nH]nn2)nn1 [Compound 51] | > 1000 |
| O=C(Nc1cc(Cl)c(Cl)nc1C(=O)O)c1ccc(-c2cn[nH]c2)nn1 [Compound 52] | < 900 |
| C#Cc1cc(NC(=O)c2ccc(-c3cn[nH]c3)nn2)c(C(=O)O)cc1Cl [Compound 53] | > 1000 |

| SMILES | EC50 [nM] |
| --- | --- |
| C#Cc1cc(NC(=O)c2cnc(-c3cn[nH]c3)cn2)c(C(=O)OC)cc1F [Compound 55] | > 20000 |
| C#Cc1cc(NC(=O)c2ncc(-c3cn[nH]c3)cn2)c(C(=O)OC)cc1F [Compound 56] | > 20000 |
| COC(=O)c1cc(Cl)c(F)cc1NC(=O)c1ccc(-c2cn[nH]c2)nn1 [Compound 57] | < 900 |
| COC(=O)c1cc(F)c(F)cc1NC(=O)c1ccc(-c2cn[nH]c2)nn1 [Compound 58] | < 900 |
| COC(=O)c1cc(F)c(F)cc1NC(=O)c1cc(NCc2ccc(OC)cc2)cnn1 [Compound 59] | < 900 |
| COC(=O)c1cc(F)c(F)cc1NC(=O)c1ccc(-c2ccncc2)nn1 [Compound 60] | < 900 |
| COC(=O)NCCNc1cc(C(=O)Nc2cc(F)c(F)cc2C(=O)OCc2ccc(OC)cc2)nnc1-n1ccnc1 [Compound 61] | > 1000 |
| O=C(Nc1cc(F)c(F)cc1C(=O)O)c1ccc(-c2cn[nH]c2)nn1 [Compound 63] | > 1000 |
| O=C(Nc1cc(Cl)c(Cl)cc1C(=O)O)c1cn(-c2cn[nH]c2)nn1 [Compound 64] | > 1000 |
| COC(=O)c1cc(F)c(F)cc1NC(=O)c1cc(CN)c(-n2ccnc2)nn1 [Compound 65] | > 1000 |
| O=C(Nc1cc(F)c(Cl)cc1C(=O)O)c1ccc(-c2cn[nH]c2)nn1 [Compound 66] | > 1000 |
| O=C(Nc1cc(Cl)c(F)cc1C(=O)O)c1ccc(-c2cn[nH]c2)nn1 [Compound 67] | > 1000 |
| COC(=O)c1cc(C#N)c(Cl)cc1NC(=O)c1ccc(-c2cn[nH]c2)nn1 [Compound 68] | < 900 |
| COC(=O)c1cc(F)c(Cl)cc1NC(=O)c1ccc(-c2cn[nH]c2)nn1 [Compound 69] | < 900 |
| N#Cc1cc(C(=O)O)c(NC(=O)c2ccc(-c3cn[nH]c3)nn2)cc1Cl [Compound 70] | > 20000 |
| COC(=O)c1cc(C#N)c(C#N)cc1NC(=O)c1ccc(-c2c(C#N)cnn2C)nn1 [Compound 71] | > 20000 |
| N#Cc1cc(C(=O)O)c(NC(=O)c2ccc(-c3c[nH]nn3)nn2)cc1Cl [Compound 72] | > 20000 |
| COC(=O)c1cc(Cl)c(Cl)cc1NC(=O)c1ccc(-c2nn(C)cc2C#N)nn1 [Compound 73] | > 20000 |
| COC(=O)c1cc(Cl)c(Cl)cc1NC(=O)c1cc(CCCN)c(-n2ccnc2)nn1 [Compound 74] | > 1000 |
| C#Cc1cc2nc(-c3ccc(-n4ccnc4)nn3)oc(=O)c2cc1F [Compound 75] | < 900 |
| C#Cc1cc(NC(=O)c2ccc(-n3ccnc3)nn2)c(C(=O)OCC)nc1Cl [Compound 76] | < 900 |

| SMILES | EC50 [nM] |
| --- | --- |
| C#Cc1cc(NC(=O)c2ccc(-n3ccnc3)nn2)c(C(=O)O)nc1Cl [Compound 77] | < 900 |
| C#Cc1cc(NC(=O)c2ccc(-c3ccncc3)nn2)c(C(=O)O)cc1Cl [Compound 78] | < 900 |
| C#Cc1cc(NC(=O)c2ccc(-n3ccnc3)nn2)c(C(=O)O)cc1F [Compound 79] | < 900 |
| C#Cc1cc2nc(-c3ccc(-n4ccnc4)nn3)oc(=O)c2cc1Cl [Compound 80] | < 900 |
| C#Cc1cc(NC(=O)c2ccc(-n3ccnc3)nn2)c(C(=O)O)cc1Cl [Compound 81] | < 900 |
| O=C(Nc1cc(Cl)c(Cl)nc1C(=O)O)c1ccc(-n2ccnc2)nn1 [Compound 82] | < 900 |
| C#Cc1cc(NC(=O)c2ccc(-c3cn[nH]c3)nn2)c(-c2c(O)c(=O)c2=O)cc1F [Compound 83] | < 900 |
| C#Cc1cc(NC(=O)c2ccc(-c3cn[nH]c3)nn2)c(-c2nn[nH]n2)cc1F [Compound 84] | > 1000 |
| C#Cc1cc(NC(=O)c2ccc(-n3ccnc3)nn2)c(C(=O)OCC)cc1F [Compound 85] | < 900 |
| C#Cc1cc(NC(=O)c2ccc(-n3ccnc3)nn2)c(C(=O)OC(C)OC(=O)OCC)cc1F (stereo not shown) [Compound 86] | < 900 |
| CC#Cc1cc(NC(=O)c2ccc(-n3ccnc3)nn2)c(C(=O)O)cc1F [Compound 87] | < 900 |
| C=Cc1cc(NC(=O)c2ccc(-n3ccnc3)nn2)c(C(=O)O)cc1F [Compound 88] | < 900 |
| C/C=C/c1cc(NC(=O)c2ccc(-n3ccnc3)nn2)c(C(=O)O)cc1F [Compound 89] | < 900 |
| C#Cc1cc(NC(=O)c2ccc(-n3ccnc3)nn2)c(C(=O)O)nc1C [Compound 90] | < 3000 |
| Cc1nc(C(=O)O)c(NC(=O)c2ccc(-n3ccnc3)nn2)cc1Cl [Compound 91] | > 1000 |
| C#Cc1cc(NC(=O)c2ccc(-n3ccnc3)nn2)c(C(=O)O)nc1F [Compound 92] | < 900 |
| C#Cc1cc2nc(-c3ccc(-n4ccnc4)nn3)oc(=O)c2nc1Cl [Compound 93] | < 3000 |
| C#Cc1cc(NC(=O)c2ccc(-n3ccnc3)nn2)c(C(=O)OC(OC(=O)C(C)C)C(C)C)cc1F (stereo not shown) [Compound 94] | < 900 |
| CC#Cc1cc(NC(=O)c2ccc(-n3ccnc3)nn2)c(C(=O)OCC)nc1Cl [Compound 95] | < 900 |
